From US12185721B2, “Glycoside compound of fatty acids, composition comprising it, process for its obtention and methods to apply it on plants or fruits or both at the same time” (Consejo Nacional de Investigaciones Científicas y Técnicas …, priority 2020, dated 2025)
No end group written: not given here.

Key:
Salmonella Newport = conditions: described values; cited from earlier work
Rhodococcus fascians = conditions: values described for other antimicrobial compounds; cited from earlier work
Micrococcus sp. = conditions: described values; cited from earlier work
Bacillus subtilis = conditions: described values; cited from earlier work
Listeria monocytogenes = conditions: described values; cited from earlier work
[1] = test system: Colletotrichum fragariae F7; conditions: described values; cited from earlier work
[2] = test system: Colletotrichum gloeosporioides L9; conditions: described values; cited from earlier work
[3] = test system: Colletotrichum acutatum M11; conditions: described values; cited from earlier work
P. digitatum = experiment: Protection against postharvest diseases in fruits of lemon tree, preventive effect; format: in vivo, Penicillum digitatum; conditions: Imazalil 500 ppm
Botritys cinerea = conditions: described values; cited from earlier work
Penicillum digitatum = conditions: described values; cited from earlier work
Pseudomona aeruginosa = conditions: described values; cited from earlier work
Proteus sp. = conditions: described values; cited from earlier work
Citrobacter sp. = conditions: described values; cited from earlier work
Escherichia coli MC 4100 = conditions: described values; cited from earlier work
Staphylococcus aureus = conditions: described values; cited from earlier work
[4] = test system: Staphylococcus epidermidis; conditions: described values; cited from earlier work
[5] = test system: Enterococcus faecium CRL35; conditions: described values; cited from earlier work
Colletotrichum acutatum = experiment: Test for resistance to disease in strawberry plants (anthracnose); format: in vivo; conditions: salicylic acid 5 mM; acibenzolar-s-methyl 1 mM
Method: Healthy plants of the cv“Pájaro” (“Bird”) 3 months old of Fragaria×ananassa from in vitro tissue cultures, with the FLs compounds at a preferred concentration of 0.03 μg/ml were sprayed and 5 days later they were exposed to the pathogen fungus Colletotrichum acutatum, causative agent of the anthracnose disease (European Journal of Plant Pathology, (2007) 117, 109-122). The infected plants were incubated in a growth chamber under optimal conditions for the proliferation of the fungi and the development of the disease (28° C., 80% of relative humidity and a photoperiod of 16 hours). Seven days after incubation, the gravity symptoms of petiole disease were assessed according to the scale proposed by Delp and Milholland (Plant Disease, (1980), 64(12), 1071-1073), that assigns values of gravity comprised between 1 (healthy plant) and 5 (very grave or dead plant). As positive controls of the induction of a defense against pathogens, the treatment with FLs was replaced by salicylic acid 5 mM or 1 mM of […] or BTH, a salicylic acid analogous that induces a […] defense in plants. It is worth noting that the FLs, BTH and salicylic acid concentrations used were subinhibitory for C. acutatum growth. As a negative control of defense induction, the plants were sprayed with sterile distilled water.

B. cinerea (gray mold) = experiment: Test for resistance to diseases in strawberry fruits, controlled conditions of growth; format: in vivo, Botrytis cinerea; conditions: FLs 10 μg/ml, HeT 0.8 mg/ml, sodium hypochlorite 4%
Method: (§1) Fruits inoculated under controlled conditions of growth: Healthy and ripe strawberries collected in the field were disinfected by means of washing in ethanol at 70%, sodium hypochlorite at 10% and sterile water. The disinfected fruits were immersed in an FLs solution (10 μg/ml) and incubated at 25° C., 90% of humidity and 16 hours of photoperiod. After 2 days of incubation, the surface of the treated fruits was inoculated with a fungus spore suspension of 20 μl ([…]) of B. cinerea or P. digitatum, and were incubated in the same growth conditions above described. Seven days after the pathogen inoculation, the incidence (% of infected fruits) and the severity (degree of affected fruit surface) of the disease were assessed. The fruits sprayed with a solution of sodium hypochlorite at 4% were used as a protection positive control and the sterile fruits treated with water, as negative controls. Besides, a treatment with the plant defense inducer HeT (0.8 mg/ml) was included. The FL and HeT concentrations were subinhibitory for fungal growth.

P. digitatum (blue mold) = experiment: as above; format: in vivo, Penicillum digitatum; conditions: FLs 10 μg/ml, HeT 0.8 mg/ml, sodium hypochlorite 4%
Method: as §1

[6] = test system: C. michiganensis cytoplasmic membrane; experiment: Test for depolarization of membranes, diSC3(5) fluorescence; format: cell-based; conditions: FLs 60 μg/ml; valinomycin 1 μM; C. michiganensis cells
Method: To study the possible mechanism underlying the FLs antimicrobial activity, the effect of the application of FLs upon C. michiganensis cytoplasmic membrane was assessed (FIG. 4), by using the cyanine stain method with 3,3′-Dipropylthiadicarbocianine iodide (diSC3 (5)) (Biochemistry (1999), 38(22), 7235-7242.).
The depolarization of the membrane in the bacterium C. michiganensis as controlled through changes in the intensity of the fluorescence emission of the diSC3 (5) membrane-sensitive stain (Biochemistry, (1999), 38(22), 7235-7242.). C. michiganensis was grown in LB liquid medium and incubated in a stirrer (120 rpm) at 26° C., up to the growth in a median logarithmic phase (OD600=0.5). The harvested cells were centrifuged and washed once (glucose 5 mM and HEPES 20 mM pH 7.3) and were suspended again up to a final OD600 final=0.05 in the same buffer. […]
After the addition of 0.4 μM de diSC3 (5), the sample cells that contained bacterial cells were incubated at 26° C. until a stable reduction of the fluorescence (about 5 minutes) was reached, what indicated the incorporation of the stain into the bacterial membrane. Afterwards, the FLs, valinomycin or water were added and the stain fluorescence increase at 622 nm (excitation wavelength) and 670 nm (emission wavelength) with a RF-5301 PC spectrofluorometer (Shimadzu, Kyoto, Japan) was recorded. […]

Xanthomonas fragariae = conditions: described values; cited from earlier work

NCC[C@H](O)C(=O)N[C@@H]1C[C@H](N)[C@@H](O[C@H]2O[C@H](CN)[C@@H](O)[C@H](O)[C@H]2O)[C@H](O)[C@H]1O[C@H]1O[C@H](CO)[C@@H](O)[C@H](N)[C@H]1O [Amikasin]
CE50 (μg/ml) for commercial antimicrobial (Salmonella Newport): Amikasin 2 μg/ml

CC[C@H]1OC(=O)[C@H](C)[C@@H](O[C@H]2C[C@@](C)(OC)[C@@H](O)[C@H](C)O2)[C@H](C)[C@@H](O[C@@H]2O[C@H](C)C[C@H](N(C)C)[C@H]2O)[C@](C)(O)C[C@@H](C)CN(C)[C@H](C)[C@@H](O)[C@]1(C)O [Azythromicin]
CE50 (μg/ml) for commercial antimicrobial (Rhodococcus fascians): Azythromicin 0.5 μg/ml
CE50 (μg/ml) for commercial antimicrobial (Micrococcus sp.): Azythromicin 0.12 μg/ml
CE50 (μg/ml) for commercial antimicrobial (Bacillus subtilis): Azythromicin 2 μg/ml
CE50 (μg/ml) for commercial antimicrobial (Listeria monocytogenes): Azythromicin 0.5 μg/ml

CCCCNC(=O)n1c(NC(=O)OC)nc2ccccc21 [Benomyl]
CE50 (μg/ml) for commercial antimicrobial [1]: Benomyl 0.29 μg/ml
CE50 (μg/ml) for commercial antimicrobial [2]: Benomyl 0.29 μg/ml

O=C1C2CC=CCC2C(=O)N1SC(Cl)(Cl)Cl (stereo not shown) [Captan]
CE50 (μg/ml) for commercial antimicrobial [3]: Captan 1 μg/ml

CC[C@H]1OC(=O)[C@H](C)[C@@H](O[C@H]2C[C@@](C)(OC)[C@@H](O)[C@H](C)O2)[C@H](C)[C@@H](O[C@@H]2O[C@H](C)C[C@H](N(C)C)[C@H]2O)[C@](C)(OC)C[C@@H](C)C(=O)[C@H](C)[C@@H](O)[C@]1(C)O [Clarythromicin]
CE50 (μg/ml) for commercial antimicrobial (Rhodococcus fascians): Clarythromicin 0.06 μg/ml
CE50 (μg/ml) for commercial antimicrobial (Micrococcus sp.): Clarythromicin 0.06 μg/ml
CE50 (μg/ml) for commercial antimicrobial (Bacillus subtilis): Clarythromicin 0.12 μg/ml
CE50 (μg/ml) for commercial antimicrobial (Listeria monocytogenes): Clarythromicin 0.12 μg/ml

CC[C@H]1OC(=O)[C@H](C)[C@@H](O[C@H]2C[C@@](C)(OC)[C@@H](O)[C@H](C)O2)[C@H](C)[C@@H](O[C@@H]2O[C@H](C)C[C@H](N(C)C)[C@H]2O)[C@](C)(O)C[C@@H](C)C(=O)[C@H](C)[C@@H](O)[C@]1(C)O [Erythromycin]
CE50 (μg/ml) for commercial antimicrobial (Rhodococcus fascians): Erythromycin 0.25 μg/ml
CE50 (μg/ml) for commercial antimicrobial (Micrococcus sp.): Erythromycin 0.12 μg/ml
CE50 (μg/ml) for commercial antimicrobial (Bacillus subtilis): Erythromycin 0.25 μg/ml
CE50 (μg/ml) for commercial antimicrobial (Listeria monocytogenes): Erythromycin 0.25 μg/ml

C=CCOC(Cn1ccnc1)c1ccc(Cl)cc1Cl (stereo not shown) [Imazalil]
protection of lemons compared with FLs 0.1 mg/ml (P. digitatum): comparable
CE50 (μg/ml) for commercial antimicrobial (Botritys cinerea): Imazalil 8 μg/ml
CE50 (μg/ml) for commercial antimicrobial (Penicillum digitatum): Imazalil 6 μg/ml

C[C@@H](O)[C@H]1C(=O)N2C(C(=O)O)=C(S[C@@H]3CN[C@H](C(=O)N(C)C)C3)[C@H](C)[C@H]12 [Meropenem]
CE50 (μg/ml) for commercial antimicrobial (Pseudomona aeruginosa): Meropenem 0.2 μg/ml
CE50 (μg/ml) for commercial antimicrobial (Proteus sp.): Meropenem 0.1 μg/ml
CE50 (μg/ml) for commercial antimicrobial (Citrobacter sp.): Meropenem 0.02 μg/ml
CE50 (μg/ml) for commercial antimicrobial (Escherichia coli MC 4100): Meropenem 0.01 μg/ml

CN[C@H](CC(C)C)C(=O)N[C@H]1C(=O)N[C@@H](CC(N)=O)C(=O)N[C@H]2C(=O)N[C@H]3C(=O)N[C@H](C(=O)N[C@H](C(=O)O)c4cc(O)cc(O)c4-c4cc3ccc4O)[C@H](O)c3ccc(c(Cl)c3)Oc3cc2cc(c3O[C@@H]2O[C@H](CO)[C@@H](O)[C@H](O)[C@H]2O[C@H]2C[C@](C)(N)[C@H](O)[C@H](C)O2)Oc2ccc(cc2Cl)[C@H]1O [Vancomycin]
CE50 (μg/ml) for commercial antimicrobial (Staphylococcus aureus): Vancomycin 0.78 μg/ml
CE50 (μg/ml) for commercial antimicrobial [4]: Vancomycin 1.56 μg/ml
CE50 (μg/ml) for commercial antimicrobial [5]: Vancomycin 0.78 μg/ml

CSC(=O)c1cccc2nnsc12 [acibenzolar-s-methyl]
protection against anthracnose compared with FLs (Colletotrichum acutatum): comparable

O=C(O)c1ccccc1O [salicylic acid]
protection against anthracnose compared with FLs (Colletotrichum acutatum): comparable

OCl [sodium hypochlorite, reference compound]
reduction of gray mold incidence (B. cinerea (gray mold)): 70%
reduction of gray mold severity (B. cinerea (gray mold)): 45%
reduction of blue mold incidence (P. digitatum (blue mold)): 50%
reduction of blue mold severity (P. digitatum (blue mold)): 40%

CC(C)[C@@H]1NC(=O)[C@H](C)OC(=O)[C@@H](C(C)C)NC(=O)[C@@H](C(C)C)OC(=O)[C@H](C(C)C)NC(=O)[C@H](C)OC(=O)[C@@H](C(C)C)NC(=O)[C@@H](C(C)C)OC(=O)[C@H](C(C)C)NC(=O)[C@H](C)OC(=O)[C@@H](C(C)C)NC(=O)[C@@H](C(C)C)OC1=O [valinomycin, reference compound]
increase of diSC3 (5) fluorescence (membrane depolarization) [6]: induced a fluorescence increase similar to the one seen with the FL compound

Cecropin B (KWKVFKKIEKMGRNIRNGIVKAGPAIAVLGEAKAL; ends and bridges not checked; UniProt P01508 27-61, looked up) [commercial antimicrobial]
CE50 (μg/ml) for commercial antimicrobial (Xanthomonas fragariae): Cecropin B 0.04 μg/ml
